According to ChEMBL document CHEMBL4819019, “Design, synthesis, antibacterial activity and toxicity of novel quaternary ammonium compounds based on pyridoxine and fatty acids” (Eur J Med Chem, 2021):

Key:
[1] = Genotoxicity in Salmonella typhimurium TA1535/pSK1002 assessed as DNA-damage activity by measuring beta-galactosidase activity at 7.5 ug/ml measured by SOS-chromotest relative to solvent control; type: toxicity; settings: salmonella enterica subsp. enterica serovar typhimurium; dose 7.5 µg/ml
Staphylococcus aureus [2] = assay: Antibacterial activity against clinical isolate methicillin-resistant Staphylococcus aureus 1065 measured after 24 hrs by broth microdilution method; type: functional
[3] = Genotoxicity in Salmonella typhimurium TA1535/pSK1002 assessed as DNA-damage activity by measuring beta-galactosidase activity at 750 ug/ml measured by SOS-chromotest relative to solvent control; type: toxicity; settings: salmonella enterica subsp. enterica serovar typhimurium; dose 750 µg/ml
[4] = Genotoxicity in Salmonella typhimurium TA1535/pSK1002 assessed as DNA-damage activity by measuring beta-galactosidase activity at 75 ug/ml measured by SOS-chromotest relative to solvent control; type: toxicity; settings: salmonella enterica subsp. enterica serovar typhimurium; dose 75 µg/ml
Proteus sp. = assay: Antibacterial activity against clinical isolate Proteus sp. 17 measured after 24 hrs by broth microdilution method; type: functional; settings: Proteus sp. (in: enterobacteria)
Micrococcus luteus = assay: Antibacterial activity against Micrococcus luteus clinical isolate measured after 24 hrs by broth microdilution method; type: functional
Acinetobacter sp. = assay: Antibacterial activity against clinical isolate Acinetobacter sp. 3 measured after 24 hrs by broth microdilution method; type: functional
[5] = test system: Staphylococcus ureilyticus; assay: Antibacterial activity against clinical isolate Staphylococcus ureilyticus 1972 measured after 24 hrs by broth microdilution method; type: functional
[6] = Cytotoxicity against human skin fibroblasts assessed as cell viability measured after 72 hrs by MTT assay; type: cell-based, Fibroblast
[7] = Genotoxicity in Salmonella typhimurium TA100 assessed as number of revertant by Ames spot test relative to solvent control; type: toxicity; settings: salmonella enterica subsp. enterica serovar typhimurium
[8] = Cytotoxicity against human mesenchymal stem cells assessed as cell viability measured after 72 hrs by MTT assay; type: cell-based
[9] = Cytotoxicity against human HEK293 cells assessed as cell viability measured after 72 hrs by MTT assay; type: cell-based
Enterococcus faecalis [10] = assay: Antibacterial activity against clinical isolate Enterococcus faecalis 23 measured after 24 hrs by broth microdilution method; type: functional
Escherichia coli [11] = assay: Antibacterial activity against clinical isolate Escherichia coli 718 measured after 24 hrs by broth microdilution method; type: functional
Staphylococcus aureus [12] = assay: Antibacterial activity against clinical isolate methicillin-resistant Staphylococcus aureus 713 measured after 24 hrs by broth microdilution method; type: functional
[13] = test system: Staphylococcus intermedius; assay: Antibacterial activity against clinical isolate methicillin-resistant Staphylococcus intermedius 1143 measured after 24 hrs by broth microdilution method; type: functional
[14] = Genotoxicity in Salmonella typhimurium TA1537 assessed as number of revertant by Ames spot test relative to solvent control; type: toxicity; settings: salmonella enterica subsp. enterica serovar typhimurium
[15] = Genotoxicity in Salmonella typhimurium TA1535 assessed as number of revertant by Ames spot test relative to solvent control; type: toxicity; settings: salmonella enterica subsp. enterica serovar typhimurium
Staphylococcus aureus [16] = assay: Antibacterial activity against clinical isolate methicillin-resistant Staphylococcus aureus 983 measured after 24 hrs by broth microdilution method; type: functional
Klebsiella sp. = assay: Antibacterial activity against clinical isolate Klebsiella sp. 11 measured after 24 hrs by broth microdilution method; type: functional
Escherichia coli [17] = assay: Antibacterial activity against Escherichia coli MG 1655 measured after 24 hrs by broth microdilution method; type: functional
Klebsiella pneumoniae = assay: Antibacterial activity against clinical isolate Klebsiella pneumoniae 1813 measured after 24 hrs by broth microdilution method; type: functional
Staphylococcus aureus [18] = assay: Antibacterial activity against clinical isolate methicillin-resistant Staphylococcus aureus 1053 measured after 24 hrs by broth microdilution method; type: functional
Pseudomonas aeruginosa [19] = assay: Antibacterial activity against Pseudomonas aeruginosa ATCC 27853 measured after 24 hrs by broth microdilution method; type: functional
[20] = test system: Staphylococcus intermedius; assay: Antibacterial activity against clinical isolate methicillin-resistant Staphylococcus intermedius 1061 measured after 24 hrs by broth microdilution method; type: functional
[21] = Genotoxicity in Salmonella typhimurium TA98 assessed as number of revertant by Ames spot test relative to solvent control; type: toxicity; settings: salmonella enterica subsp. enterica serovar typhimurium
Moraxella = assay: Antibacterial activity against clinical isolate Moraxella 765 measured after 24 hrs by broth microdilution method; type: functional
Serratia marcescens = assay: Antibacterial activity against clinical isolate Serratia marcescens 1966 measured after 24 hrs by broth microdilution method; type: functional
Enterococcus faecalis [22] = assay: Antibacterial activity against clinical isolate Enterococcus faecalis 3063 measured after 24 hrs by broth microdilution method; type: functional
[23] = Lipophilicity, logP of the compound; type: physicochemical; settings: octanol/water
Staphylococcus aureus [24] = assay: Antibacterial activity against clinical isolate methicillin-resistant Staphylococcus aureus 1131 measured after 24 hrs by broth microdilution method; type: functional
Pseudomonas aeruginosa [25] = assay: Antibacterial activity against clinical isolate Pseudomonas aeruginosa 1945 measured after 24 hrs by broth microdilution method; type: functional
Pseudomonas sp. = assay: Antibacterial activity against clinical isolate Pseudomonas sp. 5 measured after 24 hrs by broth microdilution method; type: functional
Staphylococcus aureus [26] = assay: Antibacterial activity against Staphylococcus aureus ATCC 29213 measured after 24 hrs by broth microdilution method; type: functional
[27] = Genotoxicity in Salmonella typhimurium TA1535/pSK1002 assessed as DNA-damage activity by measuring beta-galactosidase activity at 150 ug/ml measured by SOS-chromotest relative to solvent control; type: toxicity; settings: salmonella enterica subsp. enterica serovar typhimurium; dose 150 µg/ml
[28] = Genotoxicity in Salmonella typhimurium TA1535/pSK1002 assessed as DNA-damage activity by measuring beta-galactosidase activity at 15 ug/ml measured by SOS-chromotest relative to solvent control; type: toxicity; settings: salmonella enterica subsp. enterica serovar typhimurium; dose 15 µg/ml
Staphylococcus aureus [29] = assay: Antibacterial activity against clinical isolate Staphylococcus aureus 25 measured after 24 hrs by broth microdilution method; type: functional
Bacillus subtilis = assay: Antibacterial activity against Bacillus subtilis 168 measured after 24 hrs by broth microdilution method; type: functional

| SMILES | Ratio [1] | MIC (Staphylococcus aureus [2]) | Ratio [3] | Ratio [4] | MIC (Proteus sp.) | MIC (Micrococcus luteus) | CC50 at 72 h [6] | Ratio [7] | CC50 at 72 h [8] | CC50 at 72 h [9] | Ratio [14] | Ratio [15] | MIC (Escherichia coli [17]) | MIC (Pseudomonas aeruginosa [19]) | Ratio [21] | logP [23] | MIC (Staphylococcus aureus [26]) | Ratio [27] | Ratio [28] | MIC (Bacillus subtilis) | other results |
| --- | --- | --- | --- | --- | --- | --- | --- | --- | --- | --- | --- | --- | --- | --- | --- | --- | --- | --- | --- | --- | --- |
| CCCCCCCCCCCCCC(=O)OCC[N+](C)(C)Cc1nc(C)c2c(c1CO)COC(C)(C)O2.[Cl-] | 1.8 | 4 µg/mL | 0.3 | 1.2 | > 64 µg/mL | 1 µg/mL | 2.24 µg/mL | 2.1 | 1.02 µg/mL | 0.88 µg/mL | 0.05 | 0.4 | 32 µg/mL | > 64 µg/mL | 2.5 | 1.46 | 1 µg/mL | 0.9 | 1.6 | 0.5 µg/mL | MIC (Acinetobacter sp.): 64 µg/mL; MIC [5]: > 64 µg/mL; MIC (Enterococcus faecalis [10]): 2 µg/mL; MIC (Escherichia coli [11]): 32 µg/mL; MIC (Staphylococcus aureus [12]): 2 µg/mL; MIC [13]: 4 µg/mL; MIC (Staphylococcus aureus [16]): 32 µg/mL; MIC (Klebsiella sp.): 64 µg/mL; MIC (Klebsiella pneumoniae): 2 µg/mL; MIC (Staphylococcus aureus [18]): 2 µg/mL; MIC [20]: 4 µg/mL; MIC (Moraxella): 64 µg/mL; MIC (Serratia marcescens): > 64 µg/mL; MIC (Enterococcus faecalis [22]): 2 µg/mL; MIC (Staphylococcus aureus [24]): 4 µg/mL; MIC (Pseudomonas aeruginosa [25]): 64 µg/mL; MIC (Pseudomonas sp.): 64 µg/mL; MIC (Staphylococcus aureus [29]): 2 µg/mL |
| CCCCCCCCCCCCCC(=O)OCC[N+](C)(C)Cc1cnc(C)c2c1COC(CCC)O2.[Cl-] (centres undefined) | 1.4 | 2 µg/mL | 0.3 | 1.5 | > 64 µg/mL | 0.5 µg/mL | 2.18 µg/mL | 1.2 | 1.28 µg/mL | 1 µg/mL | 0.04 | 0.4 | 16 µg/mL | 1 µg/mL | 4.7 | 2.97 | 0.5 µg/mL | 1.3 | 1.5 | 4 µg/mL | MIC (Acinetobacter sp.): 64 µg/mL; MIC [5]: > 64 µg/mL; MIC (Enterococcus faecalis [10]): 4 µg/mL; MIC (Escherichia coli [11]): 32 µg/mL; MIC (Staphylococcus aureus [12]): 2 µg/mL; MIC [13]: 4 µg/mL; MIC (Staphylococcus aureus [16]): 64 µg/mL; MIC (Klebsiella sp.): 32 µg/mL; MIC (Klebsiella pneumoniae): 64 µg/mL; MIC (Staphylococcus aureus [18]): 2 µg/mL; MIC [20]: 2 µg/mL; MIC (Moraxella): 64 µg/mL; MIC (Serratia marcescens): > 64 µg/mL; MIC (Enterococcus faecalis [22]): 4 µg/mL; MIC (Staphylococcus aureus [24]): 4 µg/mL; MIC (Pseudomonas aeruginosa [25]): > 64 µg/mL; MIC (Pseudomonas sp.): 64 µg/mL; MIC (Staphylococcus aureus [29]): 2 µg/mL |
| CCCCCCCCCCCCCC(=O)NCCC[N+](C)(C)Cc1cnc(C)c2c1COC(C)(C)O2.[Cl-] | 1.5 |  | 1 | 0.7 |  | 1 µg/mL | 3.14 µg/mL | 2.5 | 2.21 µg/mL | 1.61 µg/mL | 0.03 | 0.4 | 8 µg/mL | 8 µg/mL | 2.6 | 1.47 | 0.5 µg/mL | 0.5 | 1.5 | 2 µg/mL |  |
